Test results reported in PubChem BioAssay AID832 (PCMD, 2007).
Inconclusive results are not listed. Activity calls are given as the source filed them. No rule for the calls is given here.

The compounds below were run against Cathepsin G (Homo sapiens) (UniProt P08311) (assay: IC50 of CTSG protease blockers – biochemical, confirmation, dose response (AID 832)). Conditions: purified cathepsin G enzyme activity, signal read-out.
Chain of Cathepsin G (Homo sapiens) (P08311 21-244 limits assumed): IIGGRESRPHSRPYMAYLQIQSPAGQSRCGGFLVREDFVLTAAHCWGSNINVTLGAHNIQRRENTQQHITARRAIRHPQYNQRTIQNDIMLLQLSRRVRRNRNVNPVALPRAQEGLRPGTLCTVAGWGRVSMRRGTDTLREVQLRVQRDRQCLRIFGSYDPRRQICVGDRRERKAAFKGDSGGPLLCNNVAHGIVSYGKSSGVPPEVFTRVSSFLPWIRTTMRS

IC50 | SMILES
> 50 µM (inactive) | COc1ccc(C2C(C(=O)c3cccs3)=C(O)C(=O)N2c2nncs2)cc1 (stereo not drawn)
> 50 µM (inactive) | O=C1CCCC(O)=C1C=NCCc1ccccc1
> 50 µM (inactive) | COC(=O)c1sc(N2C(=O)C(O)=C(C(=O)c3ccc(C)o3)C2c2ccc(F)cc2)nc1C (stereo not drawn)
